Series [1] deals with T1, angiotensin-I-converting enzyme from rabbit lung (Oryctolagus cuniculus, UniProt P12822).
T1 construct: the angiotensin-I-converting enzyme from rabbit lung (2 units/mg protein); purchased Sigma Chemical Co. (St. Louis, MO, USA); host or cells: rabbit lung (tissue-derived)
T1 sequence (P12822 34-1310): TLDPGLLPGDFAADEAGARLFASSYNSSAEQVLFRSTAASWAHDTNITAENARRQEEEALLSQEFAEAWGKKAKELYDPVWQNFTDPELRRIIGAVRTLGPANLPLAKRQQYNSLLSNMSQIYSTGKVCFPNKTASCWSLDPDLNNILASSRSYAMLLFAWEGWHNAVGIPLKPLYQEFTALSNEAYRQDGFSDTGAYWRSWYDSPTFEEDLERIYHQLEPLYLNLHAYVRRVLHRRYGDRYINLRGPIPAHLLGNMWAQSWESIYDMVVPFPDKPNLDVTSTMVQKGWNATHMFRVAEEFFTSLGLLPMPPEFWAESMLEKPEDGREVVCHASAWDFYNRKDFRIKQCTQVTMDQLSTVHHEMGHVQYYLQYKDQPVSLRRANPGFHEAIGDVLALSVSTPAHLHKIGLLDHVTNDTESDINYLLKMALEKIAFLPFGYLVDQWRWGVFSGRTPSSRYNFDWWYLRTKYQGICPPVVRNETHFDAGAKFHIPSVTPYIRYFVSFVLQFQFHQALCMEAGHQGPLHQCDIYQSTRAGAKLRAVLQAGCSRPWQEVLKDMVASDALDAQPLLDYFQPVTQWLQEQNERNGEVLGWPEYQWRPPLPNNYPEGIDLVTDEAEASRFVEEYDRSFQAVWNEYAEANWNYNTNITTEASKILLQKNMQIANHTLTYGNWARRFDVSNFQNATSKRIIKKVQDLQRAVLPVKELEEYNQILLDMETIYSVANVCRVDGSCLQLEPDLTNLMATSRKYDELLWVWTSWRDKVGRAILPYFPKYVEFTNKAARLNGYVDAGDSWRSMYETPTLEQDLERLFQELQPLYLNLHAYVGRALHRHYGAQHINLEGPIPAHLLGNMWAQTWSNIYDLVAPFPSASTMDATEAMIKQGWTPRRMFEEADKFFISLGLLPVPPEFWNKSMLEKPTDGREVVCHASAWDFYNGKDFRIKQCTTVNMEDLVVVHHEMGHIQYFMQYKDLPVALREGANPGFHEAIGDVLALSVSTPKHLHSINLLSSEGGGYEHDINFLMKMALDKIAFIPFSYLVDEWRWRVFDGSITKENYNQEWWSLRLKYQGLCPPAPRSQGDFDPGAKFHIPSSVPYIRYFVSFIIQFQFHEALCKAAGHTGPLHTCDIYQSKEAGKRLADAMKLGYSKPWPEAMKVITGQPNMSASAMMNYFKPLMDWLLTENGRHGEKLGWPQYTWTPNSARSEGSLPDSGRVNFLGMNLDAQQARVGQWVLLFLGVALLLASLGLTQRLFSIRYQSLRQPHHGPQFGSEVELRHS
Nature of the series: ACE inhibitory activity evaluation (HHL substrate, hippuric acid read at 410 nm). The format is biochemical. The settings on record: for ACE inhibitory activity (%): Table 5; for ACE-inhibitory capacity (%) With pre-incubation: with pre-incubation with ACE (3 h); for ACE-inhibitory capacity (%) Without pre-incubation: without pre-incubation with ACE. Here is the method:
ACE inhibitory potency of peptides was determined following the method described by [Forghani et al. (2016)]. […] The mixture was incubated with Hippuryl-histidyl-leucine (HHL) solution (50 μL) containing 0.1 M borate buffer pH 8.3 and 0.3 M NaCl at 37 °C for 60 min. To terminate the enzymatic reaction, 75 μL of 1 M HCl was added to the mixture. Subsequently 150 μL of pyridine were layered followed by addition of 75 μL of benzenesulfonyl chloride, and the mixture was vortexed for 1 min before being cooled on ice. The absorbance was recorded at 410 nm using a micro plate reader (Labomed, model UVD-2950, USA Power Wave X 340, Biotek Instruments. Inc.,Winooski, VT, USA). The standard curve of hippuric acid (HA) was constructed by plotting absorbance versus _mol of HA produced in 1 mL of reaction volume.

Series [2] has as its target T2, ACE (Oryctolagus cuniculus, UniProt P12822).
T2 construct: the angiotensin-I-converting enzyme from rabbit lung (2 units/mg protein); purchased Sigma Chemical Co. (St. Louis, MO, USA); host or cells: rabbit lung (tissue-derived)
T2 sequence (P12822 34-1310): T1 sequence (P12822 34-1310)
Put plainly: Kinetics study of ACE inhibition (Lineweaver-Burk / Michaelis-Menten, HHL 15 to 4000 µM). The format is biochemical, rabbit. The note with it: from plot of 1/Vmax against inhibitor concentration; read-out: Kiu (enzyme-inhibitor dissociation constant). Here is the method: To determine the mode of enzyme inhibition, Lineweaver-Burk plots of 1/v versus 1/[S] were used. ACE inhibition was determined in the presence of five concentrations of HHL from 15 to 4000 µM and four concentrations of peptides, as shown in Table 1.
Enzyme activity was expressed as nmol hippuric acid produced per min of enzymatic reaction. Kiu was calculated from the plot of 1/Vmax against inhibitor concentration at the intercept on the inhibitor concentration axis ([Cornish-Bowden, 2013]). Vmax and Km were calculated using GRAPHPAD PRISM 5 (GraphPad, Software Inc., San Diego, CA). Michaelis-Menten and Lineweaver-Burk plots were also created using the same software.

The target of series [3] is T2, ACE. Nature of the series: Effect of ACE on papain-generated peptides: hydrolysis of peptides by ACE followed by RP-HPLC. The note with it: for degradation of the peptide by ACE (in words): after up to 3 h pre-incubation with ACE; for Peaks: number of RP-HPLC peaks; for percentage of peptide cleavage by ACE: over the whole incubation period (0.5 to 3 h); for metabolised at 1 h / metabolised at 2 h / metabolised at 3 h / metabolised at 0.5 h: rabbit, isolated ACE (angiotensin-converting enzyme) solution, read-out: Cleavage (%). The class given is in vitro ADME, rabbit. The protocol: The effect of ACE on papain-generated peptides was analyzed following the method of [Yang et al. (2003)] with some modifications. Briefly, 225 µL of the peptide solution of YGIKVGYAIP,
GGIF, GIFE at concentrations of 2, 4, and 4 mM were separately incubated with 150 µL of ACE (100 mU/mL) at 37 °C. Samples were withdrawn at incubation times of 0, 0.5, 1, 2, and 3 h and kept on ice prior to analysis by HPLC. A 20-µl sample was loaded onto a Hypersil GOLD C18 column (4.6×250 mm) attached to a Shimadzu (Kyoto, Japan) LC 20AT apparatus. The column was conditioned with eluent A (0.1 % TFA in DI) and eluted with 100 % eluent A from 0 to 10 min. The peptides were eluted with eluent B (0.1 % TFA in CH3CN) with a gradient elution of 0–100 % for 10–50 min. The absorbance was read at 215 nm.
To evaluate the possible degrading effects of ACE on the bioactive peptides generated from palm kernel cake proteins prior to examining their inhibitory activity, the peptides were preincubated with ACE in a water bath shaker at 37 °C for 0.5 h, 1 h, 2 h and 3 h, and the resulting peptides were analyzed using RP-HPLC.

The target in series [4] is ACE. The settings on record: literature peptides, read-out: Kiu, cited from earlier work.
[5] abbreviates: incubation with ACE (100 mU/mL) 37 °C, 0.5 h, peptide 2 mM (YGIKVGYAIP), 4 mM (GGIF, GIFE).

The values that follow come from article PMC9789325, “Inhibition kinetics, molecular docking, and stability studies of the effect of papain-generated peptides from palm kernel cake proteins on angiotensin-converting enzyme (ACE)” (Food Chemistry: Molecular Sciences, 2022).

Entries after “also recorded” stand apart in the source; their conditions may differ. Read-outs that look alike come from different tables or passages of the source. Residues, ends and D or L forms follow the SMILES beside them. No end group written: not given here.

Regarding `CC[C@H](C)[C@H](NC(=O)CN)C(=O)N[C@@H](Cc1ccccc1)C(=O)N[C@@H](CCC(=O)O)C(=O)O` [GIFE] (H-GIFE-OH; N-terminus and C-terminus assumed), in series [1], the “ACE inhibitory activity (%)” value came out at 40 ± 1.00%, the “ACE-inhibitory capacity (%) With pre-incubation” value was 43 ± 1.80% and the “ACE-inhibitory capacity (%) Without pre-incubation” value amounted to 40 ± 1.00%. For the same compound, the Ki on ACE [2] came to 18000 µM. In addition, at ACE [3], the “degradation of the peptide by ACE (in words)” value (“degradation of the peptide” below) was “resistant; also recorded: resistant and were not degraded”; the “percentage of peptide cleavage by ACE” value is reported as ~0%. Also, at ACE [3] (incubation with ACE 37 °C, 1 h), the Peaks was determined as 1 and the metabolised at 1 h stood at 0%. In addition, at ACE [3] (incubation with ACE 37 °C, 2 h), the Peaks is 1 and the metabolised at 2 h came to 0%. In addition, on ACE [3] (incubation with ACE 37 °C, 3 h), the Peaks is reported as 1 and the metabolised at 3 h came out at 0%. For the same compound, at ACE [3] (setting [5]), the Peaks was 1 and the metabolised at 0.5 h was determined as 0%.
For orientation: IC50 means the concentration needed to halve the response being measured. High values mean a need for much substance, low ones inhibition by little substance. As to `CC[C@H](C)[C@H](NC(=O)CNC(=O)CN)C(=O)N[C@@H](Cc1ccccc1)C(=O)O` [GGIF] (H-GGIF-OH; N-terminus and C-terminus assumed), in series [1], the IC50 stood at 92 µM, the “ACE inhibitory activity (%)” value is reported as 97 ± 2.17%, the “ACE-inhibitory capacity (%) With pre-incubation” value is recorded as 87 ± 2.70% and the “ACE-inhibitory capacity (%) Without pre-incubation” value was 97 ± 2.18%. Further, the Ki at ACE [2] turned out to be 1270 µM. For the same compound, on ACE [3], the “degradation of the peptide” value is “resistant to ACE; also recorded: resistant and were not degraded”; the “percentage of peptide cleavage by ACE” value is reported as “approximately 1.5%”. Further, at ACE [3] (incubation with ACE 37 °C, 1 h), the Peaks came to 1 and the metabolised at 1 h came to 1 ± 0.2%. Further, at ACE [3] (incubation with ACE 37 °C, 2 h), the Peaks is recorded as 1 and the metabolised at 2 h came to 1 ± 0.4%. Moreover, on ACE [3] (incubation with ACE 37 °C, 3 h), the Peaks was determined as 1 and the metabolised at 3 h was found to be 2 ± 0.6%. On ACE [3] (setting [5]), the Peaks is on record as 1 and the metabolised at 0.5 h was determined as 1 ± 0.1%.
Turning to WYT, the Ki at ACE [4] (ref Girgih, He & Aluko (2014)) was 1830 µM.
WVYY: the Ki on ACE [4] (ref Girgih, He & Aluko (2014)) was 60 µM.
For the compound YGIKVGYAIP [YGIKVGYAIP], in series [1], the IC50 is 1 µM, the “ACE inhibitory activity (%)” value worked out at 100 ± 3.00%, the “ACE-inhibitory capacity (%) With pre-incubation” value was 93 ± 2.40% and the “ACE-inhibitory capacity (%) Without pre-incubation” value came out at 100 ± 3.00%. The Ki at ACE [2] came to 54 µM. Also, the “degradation of the peptide” value at ACE [3] is reported as “degraded; also recorded: not resistant to ACE”. At ACE [3] (incubation with ACE 37 °C, 1 h), the Peaks was determined as 5 and the metabolised at 1 h was 84 ± 1.6%. Besides, at ACE [3] (incubation with ACE 37 °C, 2 h), the “Cleavage (%)” value turned out to be 95%, the Peaks is on record as 5 and the metabolised at 2 h stood at 95 ± 3.2%. Moreover, at ACE [3] (setting [5]), the “Cleavage (%)” value stood at 70%, the Peaks is reported as 5 and the metabolised at 0.5 h came out at 70 ± 2.2%. Moreover, the metabolised at 3 h on ACE [3] (incubation with ACE 37 °C, 3 h) is 98 ± 3.1%.
In the case of RALP, the Ki on ACE [4] (ref He, Aluko & Ju (2014)) was 104 µM.
